Reference: patent US20080011613A1, “Method of electrolytically depositing a pharmaceutical coating onto a conductive osteal implant” (priority 2004, published 2008)

Experiment: Precipitation boundary of etidronate in the presence of Ca2+ by NaOH titration
Type: physicochemical
Details: Ca:etidronate molar ratio 2:1, titration with NaOH
Procedure: Etidronic acid has a molecular weight of 206.03 (Fluka, Switzerland). The precipitation boundary of etidronate in the presence of Ca^2+ was determined by titration and used for choosing the solution conditions suitable for electrolytic deposition (ELD). A series of 50 mL solutions containing etidronate (15, 10, 9, 5, 4, 2.5, 1.9, 1.25, 1.22, 1.15, 1.10, and 0.625 mM) and Ca(NO3)2 of different concentrations, with Ca:etidronate molar ratio all fixed at 2:1, were prepared and titrated with NaOH solutions until the first visual sign of turbidity (end point/the precipitation boundary). The pH and NaOH volume consumption at end points were recorded and the Ca^2+ and etidronate concentrations at this point was calculated using equation (Eq. 3): [formula] where C is the titrate (etidronate or Ca^2+) concentration (mM) at the end point, C0 is the titrate concentration (mM) before titration, and VNaOH is NaOH volume (mL) consumption at the end point of titration.
After the precipitation boundary was established, etidronate 5.0 mM, Ca^2+ 10 mM, and pH 4.50 were chosen as the solution conditions for ELD. […] This volume also provided reasonable space to accommodate the experiment setup, that is, two electrodes and the fixture.

With `CC(O)(P(=O)(O)O)P(=O)(O)O` [etidronate, 1-hydroxy-ethylidene-1,1-diphosphonate] the “Etidronate concentration at which no precipitation could be visually judged” value was < 1.15 mM.
